We go through 18 compounds from patent US20250154138A1, “Small Molecule IL-17A Modulators” (BeiGene, Ltd., priority 2022, published 2025).

Experiment [1] concerns IL-17-induced GROα secretion from HT-29 cells. In words: GROα release assay in human colorectal adenocarcinoma epithelial cell (HT-29, ELISA). The class given is cell-based. The note with it: Homo sapiens, HT-29, 48 h, 10 ng/mL IL-17A, highest concentration 10 μM, read-out: Cellular assay HT29 cell/CXCL1 IC50. The gist of the method:
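HT-29 cells were exposed 48 h at 37°C to IL-17A (final 10 ng/mL) preincubated 15 min with compound (4-fold dilutions, top 10 μM). Secreted GROα was quantified by ELISA against a standard curve, and IC50 obtained by four-parameter fitting.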
A general note: ELISA stands for enzyme-linked immunosorbent assay.

The target of experiment [2] is human IL-17A / human IL-17RA (Homo sapiens (Human), UniProt Q16552). As to the kind of experiment: Human IL-17A biochemical assay (HTRF, blocking of IL-17A binding to IL-17RA). The note with it: 0.4 nM IL-17A, 0.3 nM IL-17RA, max compound concentration 10 uM. The gist of the method:
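HTRF competition: 0.4 nM recombinant human IL-17A pre-incubated 3 h at room temperature with compound (top 10 uM, 2.7-fold, 10 points) in HEPES pH 7.5 buffer, then 0.3 nM IL-17RA added for 1 h, then anti-6His-Tb/anti-human IgG-XL665 detection for 1 h.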

human IL-17A / human IL-17RA, sequence (Q16552 24-155): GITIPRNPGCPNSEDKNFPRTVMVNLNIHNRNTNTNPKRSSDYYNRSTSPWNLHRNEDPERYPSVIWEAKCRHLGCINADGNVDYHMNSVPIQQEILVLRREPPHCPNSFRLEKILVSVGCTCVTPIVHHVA

`Cn1nccc1C(=O)N[C@H](C(=O)Nc1ccc2c(c1)CC(CNc1ccccc1F)(N1CC3(CC3)CNC1=O)C2)C1CCCCC1` (stereo partly drawn) [Example 172, N-((1S)-1-cyclohexyl-2-((2-(((2-fluorophenyl)amino)methyl)-2-(6-oxo-5,7-diazaspiro[2.5]octan-5-yl)-2,3-dihydro-1H-inden-5-yl)amino)-2-oxoethyl)-1-methyl-1H-pyrazole-5-carboxamide]: the IC50 in experiment [1] was 0.377 µM; in experiment [2], 0.4 µM.
The corresponding values for `CNC(=O)C1(N2CC3(CNC2=O)CC(F)(F)C3)Cc2ccc(NC(=O)[C@@H](NC(=O)c3ccnn3C)C3CCCCC3)cc2C1` (stereo partly drawn) [Example 174, N-((1S)-1-cyclohexyl-2-((2-(2,2-difluoro-7-oxo-6,8-diazaspiro[3.5]nonan-6-yl)-2-(methylcarbamoyl)-2,3-dihydro-1H-inden-5-yl)amino)-2-oxoethyl)-1-methyl-1H-pyrazole-5-carboxamide] are 0.485 µM and 0.264 µM.
The corresponding values for `Cn1nccc1C(=O)N[C@H](C(=O)Nc1ccc2c(c1)CC(C(=O)NCc1ccccc1F)(N1CC3(CC3)CNC1=O)C2)C1CCCCC1` (stereo partly drawn) [Example 175, N-((1S)-1-cyclohexyl-2-((2-((2-fluorobenzyl)carbamoyl)-2-(6-oxo-5,7-diazaspiro[2.5]octan-5-yl)-2,3-dihydro-1H-inden-5-yl)amino)-2-oxoethyl)-1-methyl-1H-pyrazole-5-carboxamide] are 0.0101 µM and 0.0224 µM.
In the same order, the values of `CNC(=O)C1(N2CC3(CC3)CNC2=O)Cc2ccc(NC(=O)[C@@H](NC(=O)C(F)(F)c3ccc(C#N)n3C)C3CCCCC3)cc2C1` (stereo partly drawn) [Example 176, 5-((S)-2-(2-(5-cyano-1-methyl-1H-pyrrol-2-yl)-2,2-difluoroacetamido)-2-cyclohexylacetamido)-N-methyl-2-(6-oxo-5,7-diazaspiro[2.5]octan-5-yl)-2,3-dihydro-1H-indene-2-carboxamide] are 0.29 µM and 0.0699 µM.
For `CC(C)n1nccc1C(=O)N[C@H](C(=O)Nc1ccc2c(c1)CC(N1C[C@@H](C(F)(F)F)NC1=O)C2)C(C1CC1)C1CC1` (stereo partly drawn) [Example 177, N-((2S)-1,1-dicyclopropyl-3-oxo-3-((2-((S)-2-oxo-4-(trifluoromethyl)imidazolidin-1-yl)-2,3-dihydro-1H-inden-5-yl)amino)propan-2-yl)-1-isopropyl-1H-pyrazole-5-carboxamide], the IC50 was found to be 0.0594 µM in experiment [1] and 0.0533 µM in experiment [2].
The corresponding values for `Cc1nonc1C(=O)N[C@H](C(=O)Nc1ccc2c(c1)CC(N1C[C@@H](C(F)(F)F)NC1=O)C2)C1CCC(F)(F)CC1` (stereo partly drawn) [Example 178, N-((1S)-1-(4,4-difluorocyclohexyl)-2-oxo-2-((2-((S)-2-oxo-4-(trifluoromethyl)imidazolidin-1-yl)-2,3-dihydro-1H-inden-5-yl)amino)ethyl)-4-methyl-1,2,5-oxadiazole-3-carboxamide] are 2.21 µM and 3.65 µM.
In the same order, the values of `CNC(=O)C1(N2CC(C)(C(F)(F)F)CNC2=O)Cc2ccc(NC(=O)[C@@H](NC(=O)c3ccnn3C)C3CCCCC3)cc2C1` (stereo partly drawn) [Example 179, N-((1S)-1-cyclohexyl-2-((2-(5-methyl-2-oxo-5-(trifluoromethyl)tetrahydropyrimidin-1(2H)-yl)-2-(methylcarbamoyl)-2,3-dihydro-1H-inden-5-yl)amino)-2-oxoethyl)-1-methyl-1H-pyrazole-5-carboxamide] are 0.0516 µM and 0.0109 µM.
The corresponding values for `CNC(=O)C1(N2CC3(CC3)CNC2=O)Cc2ccc(NC(=O)C(NC(=O)c3nonc3C)C3CCC(C(F)(F)F)CC3)cc2C1` (stereo not drawn) [Example 181, 4-methyl-N-(2-((2-(methylcarbamoyl)-2-(6-oxo-5,7-diazaspiro[2.5]octan-5-yl)-2,3-dihydro-1H-inden-5-yl)amino)-2-oxo-1-(4-(trifluoromethyl)cyclohexyl)ethyl)-1,2,5-oxadiazole-3-carboxamide] are 0.154 µM and 0.193 µM.
As for `Cn1nccc1C(=O)N[C@H](C(=O)Nc1ccc2c(c1)CC(C(=O)NC13CC(C1)C3)(N1CC3(CC3)CNC1=O)C2)C1CCCCC1` (stereo partly drawn) [Example 182, N-((1S)-2-((2-(bicyclo[1.1.1]pentan-1-ylcarbamoyl)-2-(6-oxo-5,7-diazaspiro[2.5]octan-5-yl)-2,3-dihydro-1H-inden-5-yl)amino)-1-cyclohexyl-2-oxoethyl)-1-methyl-1H-pyrazole-5-carboxamide], the figures for the IC50 in experiment [1] and in experiment [2] were 0.0529 µM and 0.0269 µM, respectively.
In the same order, the values of `Cc1nonc1C(=O)N[C@H](C(=O)Nc1ccc2c(c1)CC(N1C[C@@H](C(F)(F)F)NC1=O)C2)C(C1CC1)C1CC1` (stereo partly drawn) [Example 183, N-((2S)-1,1-dicyclopropyl-3-oxo-3-((2-((S)-2-oxo-4-(trifluoromethyl)imidazolidin-1-yl)-2,3-dihydro-1H-inden-5-yl)amino)propan-2-yl)-4-methyl-1,2,5-oxadiazole-3-carboxamide] are 0.37 µM and 0.768 µM.
`Cc1nonc1C(=O)N[C@H](C(=O)Nc1ccc2c(c1)CC(c1nc3ccccc3[nH]1)(N1CC3(CC3)CNC1=O)C2)C1CCC(F)(F)CC1` (stereo partly drawn) [Example 184, N-((1S)-2-((2-(1H-benzo[d]imidazol-2-yl)-2-(6-oxo-5,7-diazaspiro[2.5]octan-5-yl)-2,3-dihydro-1H-inden-5-yl)amino)-1-(4,4-difluorocyclohexyl)-2-oxoethyl)-4-methyl-1,2,5-oxadiazole-3-carboxamide]: the IC50 in experiment [1] was found to be 0.0573 µM; in experiment [2], 0.151 µM.
The corresponding values for `Cc1nonc1C(=O)N[C@H](C(=O)Nc1ccc2c(c1)CC(C(=O)NCC(C)C1CCCCC1)(N1CC3(CC3)CNC1=O)C2)C1CCC(F)(F)CC1` (stereo partly drawn) [Example 185, N-((1S)-2-((2-((2-cyclohexylpropyl)carbamoyl)-2-(6-oxo-5,7-diazaspiro[2.5]octan-5-yl)-2,3-dihydro-1H-inden-5-yl)amino)-1-(4,4-difluorocyclohexyl)-2-oxoethyl)-4-methyl-1,2,5-oxadiazole-3-carboxamide] are 0.275 µM and 0.119 µM.
In the same order, the values of `CNC(=O)C1(N2C[C@@H](C(C)C)NC2=O)Cc2ccc(NC(=O)C(NC(=O)c3ccnn3C)C3CCc4cc(Cl)ccc4C3)cc2C1` (stereo partly drawn) [Example 186, N-(1-(6-chloro-1,2,3,4-tetrahydronaphthalen-2-yl)-2-((2-((R)-4-isopropyl-2-oxoimidazolidin-1-yl)-2-(methylcarbamoyl)-2,3-dihydro-1H-inden-5-yl)amino)-2-oxoethyl)-1-methyl-1H-pyrazole-5-carboxamide] are 0.0151 µM and 0.0063 µM.
The corresponding values for `Cc1nonc1C(=O)N[C@H](C(=O)Nc1ccc2c(c1)CC(c1nc3cccc(F)c3[nH]1)(N1CC3(CC3)CNC1=O)C2)C1CCC(F)(F)CC1` (stereo partly drawn) [Example 187, N-((1S)-1-(4,4-difluorocyclohexyl)-2-((2-(7-fluoro-1H-benzo[d]imidazol-2-yl)-2-(6-oxo-5,7-diazaspiro[2.5]octan-5-yl)-2,3-dihydro-1H-inden-5-yl)amino)-2-oxoethyl)-4-methyl-1,2,5-oxadiazole-3-carboxamide] are 0.246 µM and 0.249 µM.
As for `Cc1nonc1C(=O)N[C@H](C(=O)Nc1ccc2c(c1)CC(C(=O)O)(N1CC3(CC3)CNC1=O)C2)C1CCC(F)(F)CC1` (stereo partly drawn) [Example 188, 5-((S)-2-(4,4-difluorocyclohexyl)-2-(4-methyl-1,2,5-oxadiazole-3-carboxamido)acetamido)-2-(6-oxo-5,7-diazaspiro[2.5]octan-5-yl)-2,3-dihydro-1H-indene-2-carboxylic acid], the IC50 in experiment [1] came out at 0.45 µM; in experiment [2], 0.0449 µM.
As to `Cn1nccc1C(=O)N[C@H](C(=O)Nc1ccc2c(c1)CC(C(=O)O)(N1CC3(CC3)CNC1=O)C2)C1CCCCC1` (stereo partly drawn) [Example 189, 5-((S)-2-cyclohexyl-2-(1-methyl-1H-pyrazole-5-carboxamido)acetamido)-2-(6-oxo-5,7-diazaspiro[2.5]octan-5-yl)-2,3-dihydro-1H-indene-2-carboxylic acid], the IC50 in experiment [1] came out at 0.124 µM; in experiment [2], 0.0153 µM.
`Cc1nonc1C(=O)N[C@H](C(=O)Nc1ccc2c(c1)CC(C(=O)NC1CCC(F)(F)C1)(N1CC3(CC3)CNC1=O)C2)C1CCC(F)(F)CC1` (stereo partly drawn) [Example 190, N-((1S)-1-(4,4-difluorocyclohexyl)-2-((2-((3,3-difluorocyclopentyl)carbamoyl)-2-(6-oxo-5,7-diazaspiro[2.5]octan-5-yl)-2,3-dihydro-1H-inden-5-yl)amino)-2-oxoethyl)-4-methyl-1,2,5-oxadiazole-3-carboxamide]: the IC50 came out at 0.139 µM in experiment [1] and 0.0871 µM in experiment [2].
The corresponding values for `Cc1nonc1C(=O)N[C@H](C(=O)Nc1ccc2c(c1)CC(C(=O)NC1CCC(F)(F)CC1)(N1CC3(CC3)CNC1=O)C2)C1CCC(F)(F)CC1` (stereo partly drawn) [Example 191, N-((1S)-1-(4,4-difluorocyclohexyl)-2-((2-((4,4-difluorocyclohexyl)carbamoyl)-2-(6-oxo-5,7-diazaspiro[2.5]octan-5-yl)-2,3-dihydro-1H-inden-5-yl)amino)-2-oxoethyl)-4-methyl-1,2,5-oxadiazole-3-carboxamide] are 0.168 µM and 0.0769 µM.
